{"source": "ChEMBL document CHEMBL5385944", "about": "“Hydrazyl hydroxycoumarins as new potential conquerors towards Pseudomonas aeruginosa” (Bioorg Med Chem Lett, 2024)", "key": {"Acinetobacter baumannii": {"tested_on": "Acinetobacter baumannii", "assay": "Antibacterial activity against Acinetobacter baumannii assessed as reduction in bacterial growth by CLSI protocol based method", "type": "functional"}, "Pseudomonas aeruginosa [1]": {"tested_on": "Pseudomonas aeruginosa", "assay": "Antibacterial activity against Pseudomonas aeruginosa ATCC 27853 assessed as reduction in bacterial growth by CLSI protocol based method", "type": "functional"}, "Calf thymus DNA": {"tested_on": "Calf thymus DNA", "assay": "Binding affinity to calf thymus DNA at upto 18 micromol/ml by fluorescence spectroscopic method", "type": "nucleic-acid assay", "conditions": "Bos taurus; dose <= 18.0 µmol/ml"}, "Cell membrane [2]": {"tested_on": "Cell membrane", "assay": "Disruption of inner membrane integrity in Pseudomonas aeruginosa ATCC 27853 assessed as increase in fluorescence intensity at 4 to 8 times MIC", "type": "subcellular", "conditions": "time <= 12.0 min, TDE = time-dependent effect"}, "Cell membrane [3]": {"tested_on": "Cell membrane", "assay": "Disruption of outer membrane integrity in Pseudomonas aeruginosa ATCC 27853 assessed as increase in fluorescence intensity at 4 to 8 times MIC", "type": "subcellular", "conditions": "time <= 80.0 min, TDE = time-dependent effect"}, "Staphylococcus aureus [4]": {"tested_on": "Staphylococcus aureus", "assay": "Antibacterial activity against Staphylococcus aureus ATCC 25923 assessed as reduction in bacterial growth by CLSI protocol based method", "type": "functional"}, "Pseudomonas aeruginosa [5]": {"tested_on": "Pseudomonas aeruginosa", "assay": "Antibacterial activity against Pseudomonas aeruginosa assessed as reduction in bacterial growth by CLSI protocol based method", "type": "functional"}, "NCM460 [6]": {"tested_on": "NCM460", "assay": "Cytotoxicity against human NCM460 cells assessed as reduction in cell viability at 25 ug/ml measured after 24 hrs by CCK-8 method relative to control", "type": "toxicity, cell-based", "conditions": "ncm460, 24 h, at 25 µg/mL"}, "NCM460 [7]": {"tested_on": "NCM460", "assay": "Cytotoxicity against human NCM460 cells assessed as effect on cell surface damage at 25 ug/ml measured after 24 hrs by microscope based analysis", "type": "toxicity", "conditions": "ncm460, 24 h, dose 25 µg/ml"}, "Cell membrane [8]": {"tested_on": "Cell membrane", "assay": "Disruption of cell membrane integrity in Pseudomonas aeruginosa ATCC 27853 assessed as increase in protein leakage by Bradford assay", "type": "subcellular"}, "Pseudomonas aeruginosa [9]": {"tested_on": "Pseudomonas aeruginosa", "assay": "Antibacterial activity against Pseudomonas aeruginosa ATCC 10104 assessed as reduction in bacterial growth by CLSI protocol based method", "type": "functional"}, "Staphylococcus aureus [10]": {"tested_on": "Staphylococcus aureus", "assay": "Antibacterial activity against methicillin resistant Staphylococcus aureus assessed as reduction in bacterial growth by CLSI protocol based method", "type": "functional"}, "Erythrocyte": {"tested_on": "Erythrocyte", "assay": "Hemolytic activity against human RBC assessed as effect on cell morphology at 32 times MIC measured after 8 hrs by fluorescence microscopic analysis", "type": "toxicity, cell-based"}, "[11]": {"assay": "Hemolytic activity in human RBC assessed as hemolysis at 256 times MIC measured after 8 hrs relative to control", "type": "toxicity, cell-based, Erythrocyte", "conditions": "red blood cells (erythrocytes), read-out: Activity"}, "Cell membrane [12]": {"tested_on": "Cell membrane", "assay": "Disruption of inner membrane integrity in Pseudomonas aeruginosa ATCC 27853 assessed as increase in fluorescence intensity measured after 8 hrs", "type": "subcellular"}, "Klebsiella pneumoniae": {"tested_on": "Klebsiella pneumoniae", "assay": "Antibacterial activity against Klebsiella pneumoniae assessed as reduction in bacterial growth by CLSI protocol based method", "type": "functional"}, "Enterococcus faecalis": {"tested_on": "Enterococcus faecalis", "assay": "Antibacterial activity against Enterococcus faecalis assessed as reduction in bacterial growth by CLSI protocol based method", "type": "functional"}, "Staphylococcus aureus [13]": {"tested_on": "Staphylococcus aureus", "assay": "Antibacterial activity against methicillin resistant Staphylococcus aureus 43300 assessed as reduction in bacterial growth by CLSI protocol based method", "type": "functional"}, "Escherichia coli": {"tested_on": "Escherichia coli", "assay": "Antibacterial activity against Escherichia coli ATCC 25922 assessed as reduction in bacterial growth by CLSI protocol based method", "type": "functional"}, "Cell membrane [14]": {"tested_on": "Cell membrane", "assay": "Disruption of inner membrane integrity in Pseudomonas aeruginosa ATCC 27853 assessed as increase in red fluorescence intensity at 8 times MIC measured after 10 to 40 mins by propidium iodide staining based analysis", "type": "subcellular", "conditions": "time 10-40 min"}, "Pseudomonas aeruginosa [15]": {"tested_on": "Pseudomonas aeruginosa", "assay": "Induction of drug resistance in Pseudomonas aeruginosa ATCC 27853 measured within 17 passages", "type": "functional"}, "Pseudomonas aeruginosa [16]": {"tested_on": "Pseudomonas aeruginosa", "assay": "Antibacterial activity against Pseudomonas aeruginosa ATCC 90027 assessed as reduction in bacterial growth by CLSI protocol based method", "type": "functional"}, "Cell membrane [17]": {"tested_on": "Cell membrane", "assay": "Disruption of outer membrane integrity in Pseudomonas aeruginosa ATCC 27853 assessed as increase in fluorescence intensity measured after 8 hrs", "type": "subcellular"}, "Staphylococcus aureus [18]": {"tested_on": "Staphylococcus aureus", "assay": "Antibacterial activity against Staphylococcus aureus ATCC 29213 assessed as reduction in bacterial growth by CLSI protocol based method", "type": "functional"}}, "note": "Active and inactive are the calls of the source. No cut-off for these calls is given here.", "data": [{"smiles": "O=C(N/N=C/c1c(O)ccc2ccc(=O)oc12)c1ccncc1", "values": [{"measurement": "MIC", "setting": "Acinetobacter baumannii", "result": 1, "unit": "µg/mL"}, {"measurement": "MIC", "setting": "Pseudomonas aeruginosa [1]", "result": 0.5, "unit": "µg/mL"}, {"measurement": "Activity", "setting": "Calf thymus DNA", "result": "Active"}, {"measurement": "Activity", "setting": "Cell membrane [2]", "result": "Tde"}, {"measurement": "Activity", "setting": "Cell membrane [3]", "result": "Tde"}, {"measurement": "MIC", "setting": "Staphylococcus aureus [4]", "result": 16, "unit": "µg/mL"}, {"measurement": "MIC", "setting": "Pseudomonas aeruginosa [5]", "result": 8, "unit": "µg/mL"}, {"measurement": "Activity", "setting": "NCM460 [6]", "result": "> 80", "unit": "%"}, {"measurement": "Activity", "setting": "NCM460 [7]", "result": "Non-Toxic"}, {"measurement": "Activity", "setting": "Cell membrane [8]", "result": "Dose-Dependent Effect"}, {"measurement": "MIC", "setting": "Pseudomonas aeruginosa [9]", "result": 16, "unit": "µg/mL"}, {"measurement": "MIC", "setting": "Staphylococcus aureus [10]", "result": 4, "unit": "µg/mL"}, {"measurement": "Activity", "setting": "Erythrocyte", "result": "Non-Toxic"}, {"measurement": "hemolysis at 8 h, 256 times MIC", "setting": "[11]", "result": "< 4", "unit": "%"}, {"measurement": "Activity", "setting": "Cell membrane [12]", "result": "Dose-Dependent Effect"}, {"measurement": "MIC", "setting": "Klebsiella pneumoniae", "result": 2, "unit": "µg/mL"}, {"measurement": "MIC", "setting": "Enterococcus faecalis", "result": 8, "unit": "µg/mL"}, {"measurement": "MIC", "setting": "Staphylococcus aureus [13]", "result": 1, "unit": "µg/mL"}, {"measurement": "MIC", "setting": "Escherichia coli", "result": 8, "unit": "µg/mL"}, {"measurement": "Activity", "setting": "Cell membrane [14]", "result": "Active"}, {"measurement": "Activity", "setting": "Pseudomonas aeruginosa [15]", "result": "Active"}, {"measurement": "MIC", "setting": "Pseudomonas aeruginosa [16]", "result": 32, "unit": "µg/mL"}, {"measurement": "Activity", "setting": "Cell membrane [17]", "result": "Dose-Dependent Effect"}, {"measurement": "MIC", "setting": "Staphylococcus aureus [18]", "result": 8, "unit": "µg/mL"}]}]}
